Results on 13 molecules are retold here after patent publication US20210228560A1 (Centogene IP GmbH, priority 2011, published 2021).

Residue numbers refer to the chain shown, from its start. Values joined by “and” are separate entries in the source; they are usually repeats but may differ in a detail not shown here. Equal entries are not always repeated. Where two headings read alike, the source gives them in different places.

The target of data set [1] is T1, hexosaminidase A (Homo sapiens, UniProt P06865+P07686).
T1 sequence (P06865 89-529): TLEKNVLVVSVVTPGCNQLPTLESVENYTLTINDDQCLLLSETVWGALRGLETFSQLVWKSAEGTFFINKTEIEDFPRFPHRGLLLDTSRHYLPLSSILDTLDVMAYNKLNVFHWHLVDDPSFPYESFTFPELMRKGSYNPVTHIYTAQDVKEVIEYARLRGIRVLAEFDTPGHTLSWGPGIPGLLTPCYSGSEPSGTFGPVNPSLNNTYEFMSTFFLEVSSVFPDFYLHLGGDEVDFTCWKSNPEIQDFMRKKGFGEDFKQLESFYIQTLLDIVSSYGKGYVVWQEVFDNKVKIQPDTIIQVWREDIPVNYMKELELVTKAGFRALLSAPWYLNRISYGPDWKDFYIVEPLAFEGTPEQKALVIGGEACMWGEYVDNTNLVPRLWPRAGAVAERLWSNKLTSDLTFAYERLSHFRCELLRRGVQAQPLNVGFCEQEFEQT
T1 sequence (P07686 122-556): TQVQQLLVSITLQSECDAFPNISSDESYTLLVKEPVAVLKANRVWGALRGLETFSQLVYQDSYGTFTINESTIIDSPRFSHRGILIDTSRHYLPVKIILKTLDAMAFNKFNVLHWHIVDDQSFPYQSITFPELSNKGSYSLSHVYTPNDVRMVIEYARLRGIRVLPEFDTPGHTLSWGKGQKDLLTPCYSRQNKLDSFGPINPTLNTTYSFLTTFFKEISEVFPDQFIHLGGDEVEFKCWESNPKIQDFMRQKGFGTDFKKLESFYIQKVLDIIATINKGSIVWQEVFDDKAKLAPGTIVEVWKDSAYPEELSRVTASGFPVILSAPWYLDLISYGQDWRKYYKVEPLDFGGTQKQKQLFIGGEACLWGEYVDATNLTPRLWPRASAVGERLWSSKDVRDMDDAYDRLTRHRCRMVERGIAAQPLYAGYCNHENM
To be noted: cited from earlier work.

The subject of data set [2] is GLA mutants (alpha-galactosidase A). To be noted: for enzyme activity of GLA mutants, compound in combination with DGJ: 40 μM compound + 20 μM DGJ, compared to DGJ alone, DGJ-responsive mutants, FIG. 3, FIG. 6.
Data set [3] addresses acid α-glucosidase mutants (Homo sapiens, UniProt P10253, Y455F). Format: cell-based. Conditions: 20 μM DNJ + 40 μM compound; FIG. 11. As for the experimental part:
(§1) A bacterial clone containing the full length cDNA of […] (IRATp970C0971D, aligned to accession no. NM_000152.3, GeneBank) was received form ImaGenes GmbH, Berlin, Germany. Amplification was performed with the primers 5′-TAGGAGCTGTCCAGGCCATC-3′ (SEQ ID NO:3) and 5′-GAGAGACTAACACACTCCGC-3′ (SEQ ID NO:4). The PCR was carried out using iProof DNA Polymerase (BioRad). The cDNA was subcloned into pCRII TA TOPO vector (Invitrogen). Prior to ligation, the cDNA insert was incubated with Taq polymerase (Qiagen) to add a poly (A) overhang at the 3′-end for TA-cloning. For expression, the GAA cDNA was ligated into target vector pcDNA3.1/V5-His6 (Invitrogen) using sticky end ligation utilizing unique restriction sites (HindIII, XhoI) offered by both vectors multiple cloning sites.
(§2) Sample preparation was carried out analogously to the α-galactosidase A recordings. As substrate, a 1.3 mg 4-Methylumbelliferyl-α-D-Glukopyranoside/ml solution (in sodium acetate buffer, pH 4.0) was used and 5 μg sample/reaction were added. The reaction was incubated for 60 minutes at 37° C. and stopped with 1M Glycine-NaOH, pH 10.5.

Data set [4] in a line: Plasma concentration and absorption (literature). In kind it is in vivo, human. To be noted: 32 mg tablet; estimate.
For data set [5] the following is noted: cited from earlier work.
Data set [6] concerns the target T2, GLA[A156V] (Homo sapiens, UniProt P06280, A156V).
T2 sequence (P06280 32-429 A156V): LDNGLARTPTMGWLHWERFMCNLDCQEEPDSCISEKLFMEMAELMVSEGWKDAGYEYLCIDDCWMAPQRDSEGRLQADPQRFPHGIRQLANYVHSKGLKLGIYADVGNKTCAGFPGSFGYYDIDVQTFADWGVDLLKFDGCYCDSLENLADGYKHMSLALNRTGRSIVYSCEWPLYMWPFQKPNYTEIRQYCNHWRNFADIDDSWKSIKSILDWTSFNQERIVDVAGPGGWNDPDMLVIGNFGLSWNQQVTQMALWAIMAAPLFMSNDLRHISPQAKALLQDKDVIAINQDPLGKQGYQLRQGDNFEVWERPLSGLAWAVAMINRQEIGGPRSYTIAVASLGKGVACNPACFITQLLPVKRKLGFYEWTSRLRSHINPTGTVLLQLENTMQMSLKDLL
Format: cell-based. Conditions: for mutant enzyme activity in combination with DGJ: concentration of SF-54B and SF-55C 10 μM and 40 μM, respectively; for mutant enzyme activity in combination with DGJ, concentration series: increasing concentrations of compound with DGJ, FIG. 10.

The subject of data set [7] is GLA. To be noted: patient lymphoblasts; cited from earlier work.
Data set [8] deals with mutant GLA. To be noted: cell-free; cited from earlier work.
In data set [9] the test system is mutant GLA. Conditions: washout two hours prior to assay; cited from earlier work.
Data set [10] addresses T3, GLA[R301G] (Homo sapiens, UniProt P06280, R301G).
T3 sequence (P06280 32-429 R301G): T2 sequence (P06280 32-429 A156V) with V125A, R270G
Format: cell-based.

For data set [11], the system named is Alpha-Gal A. To be noted: grown in the presence of DGJ, cited from earlier work.
The target of data set [12] is acid α-glucosidase mutants (Homo sapiens, UniProt P10253, L552P). In kind it is cell-based. Conditions: 20 μM DNJ + 40 μM compound; FIG. 11B. The procedure: as §1, §2
For data set [13], the system named is acid α-glucosidase mutants. Format: cell-based. To be noted: 20 μM NB-DNJ alone; FIG. 7A. As for the experimental part: as §1, §2
The mark [14] stands for this setting: value with superscript 2 (mark not explained).
Where [15] appears, read: value with superscript 1 (mark not explained).

In general, Ki refers to the equilibrium dissociation constant of an inhibitor or competing ligand from its target. The IC50 is the midpoint of a concentration-inhibition curve.

Chain of acid α-glucosidase mutants (Homo sapiens, UniProt P10253, Y455F) (P10253 70-952 Y455F): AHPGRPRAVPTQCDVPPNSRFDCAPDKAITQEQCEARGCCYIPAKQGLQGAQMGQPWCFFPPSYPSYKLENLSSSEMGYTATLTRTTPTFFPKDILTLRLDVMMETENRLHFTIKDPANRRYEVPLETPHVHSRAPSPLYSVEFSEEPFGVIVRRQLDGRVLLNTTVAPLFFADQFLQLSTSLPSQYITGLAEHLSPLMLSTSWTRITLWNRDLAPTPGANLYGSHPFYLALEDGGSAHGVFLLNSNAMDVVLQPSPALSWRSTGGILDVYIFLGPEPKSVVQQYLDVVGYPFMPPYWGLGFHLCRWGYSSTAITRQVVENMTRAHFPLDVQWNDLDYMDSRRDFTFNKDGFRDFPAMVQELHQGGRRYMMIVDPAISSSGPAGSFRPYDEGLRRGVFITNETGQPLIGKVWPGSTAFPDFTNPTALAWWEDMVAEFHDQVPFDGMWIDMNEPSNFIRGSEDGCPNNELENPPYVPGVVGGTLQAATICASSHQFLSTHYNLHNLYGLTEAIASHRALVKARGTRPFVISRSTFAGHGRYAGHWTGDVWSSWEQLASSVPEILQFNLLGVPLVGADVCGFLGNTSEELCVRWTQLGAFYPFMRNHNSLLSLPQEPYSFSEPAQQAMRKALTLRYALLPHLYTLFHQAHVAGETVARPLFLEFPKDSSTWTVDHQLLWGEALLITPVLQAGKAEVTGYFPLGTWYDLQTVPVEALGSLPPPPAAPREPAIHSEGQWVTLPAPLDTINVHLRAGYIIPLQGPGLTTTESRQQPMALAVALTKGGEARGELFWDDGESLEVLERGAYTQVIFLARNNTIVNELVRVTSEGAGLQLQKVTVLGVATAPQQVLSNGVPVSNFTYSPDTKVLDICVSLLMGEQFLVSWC
Chain of acid α-glucosidase mutants (Homo sapiens, UniProt P10253, L552P) (P10253 70-952 L552P): as the sequence (P10253 70-952 Y455F) above, with F386Y, L483P counted along it

For the molecule `CC(=O)NC1CNC(CO)[C@@H](O)C1O` (stereo partly drawn) [2-Acetamido-1,2-dideoxynojirimycin], the Ki in data set [1] (setting [14]) was 700 nM.
`CC(=O)NC1C(O)NC(CO)[C@@H](O)C1O` (stereo partly drawn) [2-Acetamido-2-deoxynojirimycin (ADNJ), 2-Acetamido-2-deoxynojirimycin]: the Ki in data set [1] (setting [14]) was 5 nM.
For the molecule `CC(=O)NC1CN2CC[C@H](O)C2[C@@H](O)C1O` (stereo partly drawn) [6-Acetamido-6-deoxycastanospermine], the IC50 in data set [1] (setting [15]) is 500 nM.
Take `CN(Cc1cc(Br)cc(Br)c1N)C1CCCCC1` [Bromhexine, 2,4-dibromo-6-{[cyclohexyl(methyl)amino]methyl}aniline]: the “difference of protein activity between Bromhexine and DGJ and Ambroxol and DGJ” value in data set [2] (40 μM Bromhexine or Ambroxol + 20 μM DGJ, FIG. 6) was “no significant difference”. Besides, the “alpha-Galactosidase A activity of mutant GLAs, bromhexine alone” value in [2] (40 μM Bromhexine without DGJ, FIG. 6) is “no effect”. For the same molecule, the “enzyme activity of GLA mutants, compound in combination with DGJ” value in data set [2] is recorded as “significantly increased”; in data set [2] (listed as bromhexine) it was “increased”. Also, the “increase in the activity of acid α-glucosidase mutant Y455F, compound with DNJ compared to DNJ alone” value (from here on “increase in the activity … to DNJ alone”) in data set [3] is “comparable”. The “resulting concentration referring to blood volume after first pass loss” value in [4] is on record as “approximately 0.7 μM”. For the same molecule, the intestinal absorption in data set [5] (32 mg tablet (77.6 μmol)) is listed as 22-27%. Further, the concentration of bromhexine in data set [5] (Bechgaard et al.) was 80 nM.
Consider `OC[C@H]1NC[C@H](O)[C@@H](O)[C@H]1O` [DGJ, 1-Deoxygalactonojirimycin], for which the “increase of GLA[A156V] activity” value in data set [6] (20 μM DGJ alone, no Ambroxol, untreated = 1.0, FIG. 5A) is 3.8 fold and 4 fold. The “concentration of DGJ reaching the same effect as 20 μM DGJ alone” value in data set [6] (with 40 μM Ambroxol in addition, GLA[A156V]) came out at 8.9 µM. The “concentration beyond which GLA activity decreases” value in [7] was more than 100 µM. Further, the dosages already inhibiting result in data set [8] is reported as “below 1 μM”. In data set [9], the “concentration tolerated without any detectable inhibition of the tested mutant enzyme” value is recorded as “up to 1 mM”. Moreover, in data set [10] (20 μM DGJ without Ambroxol, untreated = 1.0, FIG. 5B), the “increase of GLA[R301G] activity” value came out at 2.8 fold. For the same molecule, the “concentration of DGJ sufficient to reach the level of 20 μM DGJ alone” value in data set [10] (in combination with 40 μM Ambroxol, mutant not named in the block) turned out to be 4.72 µM. In addition, the “share of the DGJ concentration needed compared to DGJ alone” value in data set [10] (in combination with 40 μM Ambroxol, same increase of protein activity) is approximately 25%. Besides, the “Alpha-Gal A activity” value in [11] (other mutations) was “unaffected”; in data set [11] (several mutations), “more than 50 % of normal”. The clinically achievable concentration in data set [5] (clinical trials, Wu et al.) is 10 µM.
As to `CC(=O)N[C@H]1C(O)O[C@H](CO)[C@H](O)[C@@H]1O` (stereo partly drawn) [N-Acetyl-galactosamine (GalNAc), N-Acetyl-galactosamine], in [1] (setting [15]), the inhibitory constant (Ki) is 1.9 nM.
On to `CN(Cc1cc(C#N)cc(C#N)c1N)C1CCCCC1` [SF-54B], for which the “mutant enzyme activity in combination with DGJ” value in data set [6] (20 μM DGJ, FIG. 9) was “high increase”. Also, in data set [6], the “mutant enzyme activity in combination with DGJ, concentration series” value (“mutant enzyme activity … concentration series” below) is recorded as “high increase”. For the same molecule, the “increase in the activity … to DNJ alone” value in [3] was “comparable”.
In the case of `CN(Cc1cc(C#N)cc(Br)c1N)C1CCCCC1` [SF-55C], in data set [6] (20 μM DGJ, FIG. 9), the “mutant enzyme activity in combination with DGJ” value was “high increase”. For the same molecule, the “mutant enzyme activity … concentration series” value in [6] is “high increase”. Besides, the “increase in the activity … to DNJ alone” value in [3] is “comparable”.
For `Cc1cc(C)cc(-c2cc(CN(C)C3CCCCC3)c(N)c(-c3cc(C)cc(C)c3)c2)c1` [SF-80], the “concentration in combination with DGJ giving an increase as high as Ambroxol at up to 10 μM with DGJ” value in data set [6] (20 μM DGJ, FIG. 9) amounted to 1 µM.
On to `N#Cc1cc(C#N)c(N)c(CNC2CCC(O)CC2)c1` (stereo not drawn) [SF-124B], for which, in data set [12], the “increase in the activity of mutant L552P, compound with DNJ compared to DNJ only” value (shortened to “increase in the activity of mutant L552P”) is “higher”. For the same molecule, in data set [3], the “increase in the activity … to DNJ alone” value is given as “comparable”.
As for `CC(=O)Nc1c(Br)cc(Br)cc1CN(C)C1CCCCC1` [SF-150B], the “mutant enzyme activity … concentration series” value in data set [6] is listed as “high increase”. Further, in data set [12], the “increase in the activity of mutant L552P” value is “higher”. The “increase in the activity … to DNJ alone” value in [3] is “higher”.
On to `CC(=O)OC1CCC(NCc2cc(Br)cc(Br)c2N)CC1` (stereo not drawn) [SF-153B], for which the “mutant enzyme activity … concentration series” value in data set [6] was “high increase”. Moreover, the “increase in the activity of mutant L552P” value in [12] is “higher”. Further, the “increase in the activity … to DNJ alone” value in data set [3] is listed as “higher”.
For the molecule N-butyl-DNJ [NB-DNJ], in data set [13], the “enzyme activity of mutations Y455F, P545L and L552P, NB-DNJ” value was “significantly increased”.
